In PubChem BioAssay (NCI):
Values joined by “and” are separate entries in the source; they are usually repeats but may differ in a detail not shown here. Equal entries are not always repeated.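 A five-concentration, 48-hour dose response in 96-well plates underlies each endpoint, interpolated linearly between surrounding concentrations. The concentration for 50% growth inhibition is given as GI50. TGI denotes the concentration required for complete inhibition of growth.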

Assays:
Assay in all cases: growth of human tumour cells (NCI), 48 h
[1] = tested on: A498 renal
[2] = tested on: ACHN renal
[3] = tested on: BT-549 breast
[4] = tested on: DU-145 prostate
[5] = tested on: NCI-H522 lung
[6] = tested on: OVCAR-5 ovarian
[7] = tested on: SK-MEL-28 melanoma
[8] = tested on: SK-MEL-5 melanoma
[9] = tested on: SNB-75 CNS
[10] = tested on: SR leukemia

## O=[N+]([O-])c1c(Br)sc(Br)c1[N+](=O)[O-]
[1]
  GI50: 13.2 µM
  TGI: 26 µM
[2]
  GI50: 1.64 µM
  TGI: 3.19 µM
[3]
  GI50: 16.1 µM
  TGI: 29.7 µM
[4]
  GI50: 6.8 µM
  TGI: 19.6 µM
[5]
  GI50: 0.613 µM
  TGI: 1.95 µM
[6]
  GI50: 2.46 µM
  TGI: 6.95 µM
[7]
  GI50: 2.01 µM
  TGI: 4.54 µM
[8]
  GI50: 4.88 µM
  TGI: 17.2 µM
[9]
  GI50: 1.88 µM
  TGI: 4.99 µM
[10]
  GI50: 0.633 µM
  TGI: 11.7 µM

## Nc1nc(-c2ccc(F)cc2)c(-c2ccc3ncccc3n2)s1
[1]
  GI50: 3.83 µM
  TGI: 19.4 µM
[2]
  GI50: 8.33 µM
  TGI: > 25 µM
[3]
  GI50: 16.1 µM
  TGI: > 25 µM
[4]
  GI50: 14.1 µM
  TGI: > 25 µM
[5]
  GI50: 8.31 µM
  TGI: > 25 µM
[6]
  GI50: 14.1 µM
  TGI: > 25 µM
[7]
  GI50: > 25 µM
  TGI: > 25 µM
[8]
  GI50: 13.1 µM
  TGI: > 25 µM
[9]
  GI50: 5.04 µM
  TGI: > 25 µM
[10]
  GI50: > 25 µM
  TGI: > 25 µM

## CN(CC(=O)N(Cc1ccc(C2CCCCC2)cc1)c1ccc(C(=O)O)c(O)c1)S(=O)(=O)c1c(F)c(F)c(F)c(F)c1F
[1]
  GI50: 13.2 µM
  TGI: 26.1 µM
[2]
  GI50: 15.3 µM
  TGI: 28.8 µM
[3]
  GI50: 10.9 µM
  TGI: 23.6 µM
[4]
  GI50: 15.6 µM
  TGI: 29 µM
[5]
  GI50: 2.74 µM
  TGI: 8.51 µM
[6]
  GI50: 17.5 µM
  TGI: 32.4 µM
[7]
  GI50: 1.86 µM
  TGI: 3.89 µM
[8]
  GI50: 14 µM
  TGI: 27.3 µM
[9]
  GI50: 6.07 µM
  TGI: 16.7 µM
[10]
  GI50: 1.9 µM
  TGI: 4.28 µM

## COc1ccc(-c2nc3ccccn3c2/C=C/C(=O)c2cc(OC)c(OC)c(OC)c2)cc1
[1]
  GI50: 10.4 µM
  TGI: 43.9 µM
[2]
  GI50: 3.26 µM
  TGI: > 100 µM
[3]
  GI50: 3.27 µM
  TGI: > 100 µM
[4]
  GI50: 7.21 µM
  TGI: 41.1 µM
[5]
  GI50: 3.12 µM
  TGI: 23.4 µM
[6]
  GI50: 9.33 µM
  TGI: 82.2 µM
[7]
  GI50: 7.1 µM
  TGI: > 100 µM
[8]
  GI50: 2.72 µM
  TGI: 14.3 µM
[9]
  GI50: 5.49 µM
  TGI: 54.5 µM
[10]
  GI50: 3.71 µM
  TGI: > 100 µM

## COc1ccc(OC)c(/C=C(/C)[N+](=O)[O-])c1
[1]
  GI50: 8.24 µM
  TGI: 20.9 µM
[2]
  GI50: 1.77 µM
  TGI: 3.29 µM
[3]
  GI50: 5.4 µM
  TGI: 18.5 µM
[4]
  GI50: 1.64 µM
  TGI: 3.16 µM
[5]
  GI50: 1.93 µM
  TGI: 3.64 µM
[6]
  GI50: 3.13 µM
  TGI: 10.7 µM
[7]
  GI50: 2.22 µM
  TGI: 4.73 µM
[8]
  GI50: 3.47 µM
  TGI: 13 µM
[9]
  GI50: 4.73 µM
  TGI: 16 µM
[10]
  GI50: 0.316 µM
  TGI: > 100 µM

## NC(=O)c1ccc2nc(-c3ccc(Oc4ccc(Cl)cc4)cc3)[nH]c2c1
[1]
  GI50: 21.2 µM and 15.7 µM
  TGI: 75 µM and 30.1 µM
[2]
  GI50: 13.9 µM and 14.4 µM
  TGI: 75 µM and 30.2 µM
[3]
  GI50: 18 µM and 12.9 µM
  TGI: 67.1 µM and 28.2 µM
[4]
  GI50: 35 µM and 13 µM
  TGI: 75 µM and 29.8 µM
[5]
  GI50: 18.9 µM and 19.9 µM
  TGI: 75 µM and 75.2 µM
[6]
  GI50: > 75 µM and 18.6 µM
  TGI: > 75 µM and 36.8 µM
[7]
  GI50: 40.4 µM and 15.6 µM
  TGI: 75 µM and 29 µM
[8]
  GI50: 28.7 µM and 7.98 µM
  TGI: 75 µM and 23.7 µM
[9]
  GI50: 37 µM and 18.3 µM
  TGI: 75 µM and 38.5 µM
[10]
  GI50: 17.9 µM and 20.6 µM
  TGI: 61.5 µM and 57.3 µM
